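A five-concentration, 48-hour dose response in 96-well plates underlies each endpoint, interpolated linearly between surrounding concentrations. GI50: concentration for 50% inhibition of growth. TGI is the concentration that stops growth completely.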
How the values were obtained:
Assay in all cases: DTP human tumour cell line panel, 48 h; in the data active = GI50 below about 0.43 µM; inactive = the rest
UACC-257 melanoma = system: UACC-257 melanoma
CAKI-1 renal = system: CAKI-1 renal
786-0 renal = system: 786-0 renal
HOP-62 NSCLC = system: HOP-62 NSCLC
COLO 205 colon = system: COLO 205 colon
DMS 114 small cell lung = system: DMS 114 small cell lung
OVCAR-4 ovarian = system: OVCAR-4 ovarian
OVCAR-8 ovarian = system: OVCAR-8 ovarian
CCRF-CEM leukemia = system: CCRF-CEM leukemia
LXFL 529 NSCLC = system: LXFL 529 NSCLC
RXF 393 renal = system: RXF 393 renal
HOP-18 NSCLC = system: HOP-18 NSCLC
HL-60(TB) leukemia = system: HL-60(TB) leukemia
NCI-H226 lung = system: NCI-H226 lung
SNB-19 CNS = system: SNB-19 CNS
SF-295 CNS = system: SF-295 CNS
SNB-75 CNS = system: SNB-75 CNS
DLD-1 colon = system: DLD-1 colon
SNB-78 CNS = system: SNB-78 CNS
M14 melanoma = system: M14 melanoma
RXF-631 renal = system: RXF-631 renal
KM20L2 colon = system: KM20L2 colon
SK-MEL-28 melanoma = system: SK-MEL-28 melanoma
SK-OV-3 ovarian = system: SK-OV-3 ovarian
SN12C renal = system: SN12C renal
EKVX NSCLC = system: EKVX NSCLC
A498 renal = system: A498 renal
K-562 leukemia = system: K-562 leukemia
HOP-92 NSCLC = system: HOP-92 NSCLC
UO-31 renal = system: UO-31 renal
KM12 colon = system: KM12 colon
IGROV1 ovarian = system: IGROV1 ovarian
HCT-15 colon = system: HCT-15 colon
XF 498 CNS = system: XF 498 CNS
MOLT-4 leukemia = system: MOLT-4 leukemia
M19-MEL melanoma = system: M19-MEL melanoma
SK-MEL-2 melanoma = system: SK-MEL-2 melanoma
HCC-2998 colon = system: HCC-2998 colon
SF-539 CNS = system: SF-539 CNS
SW-620 colon = system: SW-620 colon
NCI-H23 lung = system: NCI-H23 lung
OVCAR-3 ovarian = system: OVCAR-3 ovarian
A549 NSCLC = system: A549 NSCLC
OVCAR-5 ovarian = system: OVCAR-5 ovarian
TK-10 renal = system: TK-10 renal
HCT-116 colon = system: HCT-116 colon
MALME-3M melanoma = system: MALME-3M melanoma
SK-MEL-5 melanoma = system: SK-MEL-5 melanoma
HT29 colon = system: HT29 colon
SF-268 CNS = system: SF-268 CNS
U251 CNS = system: U251 CNS
DMS 273 small cell lung = system: DMS 273 small cell lung
UACC-62 melanoma = system: UACC-62 melanoma
NCI-H522 lung = system: NCI-H522 lung
LOX IMVI melanoma = system: LOX IMVI melanoma
RPMI-8226 leukemia = system: RPMI-8226 leukemia
NCI-H460 lung = system: NCI-H460 lung
ACHN renal = system: ACHN renal

O=C1OC(c2cccc(C(F)(F)F)c2)c2ccc3ccccc3c21 (stereo unspecified)
> 100 µM: TGI (UACC-257 melanoma) | TGI (CAKI-1 renal) | TGI (786-0 renal) | TGI (HOP-62 NSCLC) | TGI (COLO 205 colon) | TGI (DMS 114 small cell lung) | TGI (OVCAR-4 ovarian) | TGI (OVCAR-8 ovarian) | TGI (CCRF-CEM leukemia) | TGI (LXFL 529 NSCLC) | TGI (RXF 393 renal) | TGI (HOP-18 NSCLC) | TGI (HL-60(TB) leukemia) | TGI (NCI-H226 lung) | TGI (SNB-19 CNS) | TGI (SF-295 CNS) | TGI (SNB-75 CNS) | TGI (DLD-1 colon) | TGI (SNB-78 CNS) | TGI (M14 melanoma) | TGI (RXF-631 renal) | TGI (KM20L2 colon) | TGI (SK-MEL-28 melanoma) | TGI (SK-OV-3 ovarian) | TGI (SN12C renal) | TGI (EKVX NSCLC) | TGI (A498 renal) | TGI (K-562 leukemia) | TGI (HOP-92 NSCLC) | TGI (UO-31 renal) | TGI (KM12 colon) | TGI (IGROV1 ovarian) | TGI (HCT-15 colon) | TGI (XF 498 CNS) | TGI (MOLT-4 leukemia) | TGI (M19-MEL melanoma) | TGI (SK-MEL-2 melanoma) | TGI (HCC-2998 colon) | TGI (SF-539 CNS) | TGI (SW-620 colon) | TGI (NCI-H23 lung) | TGI (OVCAR-3 ovarian) | TGI (A549 NSCLC) | TGI (OVCAR-5 ovarian) | TGI (TK-10 renal)
inactive: GI50 (UACC-257 melanoma) 8.64 µM | GI50 (CAKI-1 renal) > 100 µM | GI50 (786-0 renal) > 100 µM | GI50 (HOP-62 NSCLC) > 100 µM | GI50 (COLO 205 colon) > 100 µM | GI50 (OVCAR-4 ovarian) > 100 µM | GI50 (OVCAR-8 ovarian) > 100 µM | GI50 (CCRF-CEM leukemia) 5.19 µM | GI50 (HOP-18 NSCLC) > 100 µM | GI50 (NCI-H226 lung) > 100 µM | GI50 (SNB-19 CNS) > 100 µM | GI50 (M14 melanoma) > 100 µM | GI50 (RXF-631 renal) > 100 µM | GI50 (KM20L2 colon) > 100 µM | GI50 (SK-MEL-28 melanoma) > 100 µM | GI50 (SK-OV-3 ovarian) > 100 µM | GI50 (SN12C renal) > 100 µM | GI50 (EKVX NSCLC) > 100 µM | GI50 (A498 renal) > 100 µM | GI50 (K-562 leukemia) 25 µM | GI50 (KM12 colon) > 100 µM | GI50 (IGROV1 ovarian) > 100 µM | GI50 (HCT-15 colon) 6.21 µM | GI50 (MOLT-4 leukemia) 4.99 µM | GI50 (M19-MEL melanoma) > 100 µM | GI50 (SK-MEL-2 melanoma) > 100 µM | GI50 (HCC-2998 colon) > 100 µM | GI50 (SW-620 colon) > 100 µM | GI50 (OVCAR-3 ovarian) > 100 µM | GI50 (OVCAR-5 ovarian) > 100 µM | GI50 (TK-10 renal) > 100 µM

NC1CCC[C@H]1O (stereo partly specified)
> 100 µM: TGI (UACC-257 melanoma) | TGI (HCT-116 colon) | TGI (786-0 renal) | TGI (HOP-62 NSCLC) | TGI (MALME-3M melanoma) | TGI (COLO 205 colon) | TGI (DMS 114 small cell lung) | TGI (SK-MEL-5 melanoma) | TGI (OVCAR-4 ovarian) | TGI (OVCAR-8 ovarian) | TGI (CCRF-CEM leukemia) | TGI (RXF 393 renal) | TGI (HOP-18 NSCLC) | TGI (HL-60(TB) leukemia) | TGI (NCI-H226 lung) | TGI (SNB-19 CNS) | TGI (SF-295 CNS) | TGI (SNB-75 CNS) | TGI (HT29 colon) | TGI (SF-268 CNS) | TGI (DLD-1 colon) | TGI (SNB-78 CNS) | TGI (M14 melanoma) | TGI (U251 CNS) | TGI (RXF-631 renal) | TGI (DMS 273 small cell lung) | TGI (KM20L2 colon) | TGI (SK-MEL-28 melanoma) | TGI (UACC-62 melanoma) | TGI (SK-OV-3 ovarian) | TGI (SN12C renal) | TGI (NCI-H522 lung) | TGI (LOX IMVI melanoma) | TGI (EKVX NSCLC) | TGI (A498 renal) | TGI (K-562 leukemia) | TGI (HOP-92 NSCLC) | TGI (UO-31 renal) | TGI (KM12 colon) | TGI (RPMI-8226 leukemia) | TGI (IGROV1 ovarian) | TGI (HCT-15 colon) | TGI (NCI-H460 lung) | TGI (XF 498 CNS) | TGI (MOLT-4 leukemia) | TGI (ACHN renal) | TGI (M19-MEL melanoma) | TGI (SK-MEL-2 melanoma) | TGI (HCC-2998 colon) | TGI (SF-539 CNS) | TGI (SW-620 colon) | TGI (NCI-H23 lung) | TGI (OVCAR-3 ovarian) | TGI (A549 NSCLC) | TGI (TK-10 renal)

— PubChem BioAssay (NCI)
